Test results: US10681909B2, “Herbicidal triazoles” (FMC Corporation, priority 2014, dated 2020)

Tests used:
foxtail, giant = experiment: Test A preemergence; format: in vivo, Setaria faberii; conditions: 0 to 100 scale (0 no effect, 100 complete control)
Procedure, shortened: (§1)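 Test chemicals, formulated in a surfactant-containing non-phytotoxic solvent mixture, are applied either as a directed soil spray to newly planted seeds or as a postemergence application to plants at the one- to two-leaf stage (2–10 cm). All plants grow in a loam soil and sand blend.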

pigweed = experiment: Test A preemergence; format: in vivo, Amaranthus retroflexus; conditions: 0 to 100 scale (0 no effect, 100 complete control)
Procedure, shortened: as §1

barnyardgrass = experiment: Test A postemergence; format: in vivo, Echinochloa crus-galli; conditions: 0 to 100 scale (0 no effect, 100 complete control), approx. 10 d
Procedure, shortened: as §1

corn = experiment: Test A postemergence; format: in vivo, Zea mays; conditions: 0 to 100 scale (0 no effect, 100 complete control), approx. 10 d
Procedure, shortened: as §1

rice = experiment: Test B flooded paddy test; format: in vivo, Oryza sativa; conditions: 250 g ai/ha, applied to paddy water at 2-leaf stage, visual rating after 13 to 15 d, scale 0 (no effect) to 100 (complete control)
Procedure, shortened: (§2)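 Pots were flooded to 3 cm above the soil at treatment, and compounds were applied directly into the paddy water. That depth was held throughout. After 13 to 15 d in a greenhouse, plants were rated visually against untreated controls.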

sedge, umbrella = experiment: Test B flooded paddy test; format: in vivo, Cyperus difformis; conditions: 250 g ai/ha, applied to paddy water at 2-leaf stage, visual rating after 13 to 15 d, scale 0 (no effect) to 100 (complete control)
Procedure, shortened: as §2

ducksalad = experiment: Test B flooded paddy test; format: in vivo, Heteranthera limosa; conditions: 250 g ai/ha, applied to paddy water at 2-leaf stage, visual rating after 13 to 15 d, scale 0 (no effect) to 100 (complete control)
Procedure, shortened: as §2

ryegrass, Italian = experiment: Test C postemergence; format: in vivo, Lolium multiflorum
Procedure, shortened: (§3)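 Test chemicals in a non-phytotoxic solvent mixture with surfactant were applied to pots of plants at 2 to 18 cm (1- to 4-leaf stage) for postemergence treatment, grown in a peat-based medium with vermiculite, starter nutrients and dolomitic limestone. Preemergence treatment was to seeds freshly planted in loam soil mixed with sand.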

wheat (winter wheat) = experiment: Test C postemergence; format: in vivo, Triticum aestivum
Procedure, shortened: as §3

morningglory = experiment: Test C postemergence; format: in vivo, Ipomoea coccinea
Procedure, shortened: as §3

nutsedge, yellow = experiment: Test C postemergence; format: in vivo, Cyperus esculentus
Procedure, shortened: as §3

soybean = experiment: Test C postemergence; format: in vivo, Glycine max
Procedure, shortened: as §3

chickweed = experiment: Test C postemergence; format: in vivo, Stellaria media
Procedure, shortened: as §3

oat, wild = experiment: Test C postemergence; format: in vivo, Avena fatua
Procedure, shortened: as §3

CCOc1nc(-c2ccccc2)nn1Cc1ccnc(C(F)(F)F)c1 [Compound 27]
Plant response rating, Foxtail, Giant (foxtail, giant; 125 g ai/ha): 100
Plant response rating, Foxtail, Giant (foxtail, giant; 500 g ai/ha, approx. 10 d): 100
Plant response rating, Pigweed (pigweed; 125 g ai/ha): 100
Plant response rating, Pigweed (pigweed; 500 g ai/ha, approx. 10 d): 100
Plant response rating, Barnyardgrass (barnyardgrass; 125 g ai/ha): 90
Plant response rating, Barnyardgrass (barnyardgrass; 500 g ai/ha): 90
Plant response rating, Corn (corn; 125 g ai/ha): 60
Plant response rating, Corn (corn; 500 g ai/ha): 70
Plant response rating, Rice, Flood (rice): 30
Plant response rating, Sedge, Umbrella, Flood (sedge, umbrella): 95
Plant response rating, Ducksalad, Flood (ducksalad): 90
Plant response rating (scale of 0 to 100 where 0 is no effect and 100 is complete control) (ryegrass, Italian; 31 g ai/ha): 5
Plant response rating (scale of 0 to 100 where 0 is no effect and 100 is complete control) (ryegrass, Italian; 62 g ai/ha): 20
Plant response rating (scale of 0 to 100 where 0 is no effect and 100 is complete control) (ryegrass, Italian; 125 g ai/ha): 30
Plant response rating (scale of 0 to 100 where 0 is no effect and 100 is complete control) (ryegrass, Italian; 250 g ai/ha): 35
Plant response rating (scale of 0 to 100 where 0 is no effect and 100 is complete control) (wheat (winter wheat); 31 g ai/ha): 5
Plant response rating (scale of 0 to 100 where 0 is no effect and 100 is complete control) (wheat (winter wheat); 62 g ai/ha): 5
Plant response rating (scale of 0 to 100 where 0 is no effect and 100 is complete control) (wheat (winter wheat); 125 g ai/ha): 5
Plant response rating (scale of 0 to 100 where 0 is no effect and 100 is complete control) (wheat (winter wheat); 250 g ai/ha): 15
Plant response rating (scale of 0 to 100 where 0 is no effect and 100 is complete control) (morningglory; 31 g ai/ha): 85
Plant response rating (scale of 0 to 100 where 0 is no effect and 100 is complete control) (morningglory; 62 g ai/ha): 80
Plant response rating (scale of 0 to 100 where 0 is no effect and 100 is complete control) (morningglory; 125 g ai/ha): 90
Plant response rating (scale of 0 to 100 where 0 is no effect and 100 is complete control) (morningglory; 250 g ai/ha): 85
Plant response rating (scale of 0 to 100 where 0 is no effect and 100 is complete control) (nutsedge, yellow; 31 g ai/ha): 5
Plant response rating (scale of 0 to 100 where 0 is no effect and 100 is complete control) (nutsedge, yellow; 62 g ai/ha): 5
Plant response rating (scale of 0 to 100 where 0 is no effect and 100 is complete control) (nutsedge, yellow; 125 g ai/ha): 10
Plant response rating (scale of 0 to 100 where 0 is no effect and 100 is complete control) (nutsedge, yellow; 250 g ai/ha): 10
Plant response rating (scale of 0 to 100 where 0 is no effect and 100 is complete control) (soybean; 31 g ai/ha): 70
Plant response rating (scale of 0 to 100 where 0 is no effect and 100 is complete control) (soybean; 62 g ai/ha): 95
Plant response rating (scale of 0 to 100 where 0 is no effect and 100 is complete control) (soybean; 125 g ai/ha): 65
Plant response rating (scale of 0 to 100 where 0 is no effect and 100 is complete control) (soybean; 250 g ai/ha): 70
Plant response rating (scale of 0 to 100 where 0 is no effect and 100 is complete control) (chickweed; 31 g ai/ha): 95
Plant response rating (scale of 0 to 100 where 0 is no effect and 100 is complete control) (chickweed; 62 g ai/ha): 90
Plant response rating (scale of 0 to 100 where 0 is no effect and 100 is complete control) (chickweed; 125 g ai/ha): 90
Plant response rating (scale of 0 to 100 where 0 is no effect and 100 is complete control) (chickweed; 250 g ai/ha): 90
Plant response rating (scale of 0 to 100 where 0 is no effect and 100 is complete control) (oat, wild; 31 g ai/ha): 10
Plant response rating (scale of 0 to 100 where 0 is no effect and 100 is complete control) (oat, wild; 62 g ai/ha): 10
Plant response rating (scale of 0 to 100 where 0 is no effect and 100 is complete control) (oat, wild; 125 g ai/ha): 25
Plant response rating (scale of 0 to 100 where 0 is no effect and 100 is complete control) (oat, wild; 250 g ai/ha): 40
